From ChEMBL document CHEMBL4387729, “Synthesis and structure-activity relationship of 4-alkoxy-thieno[2,3-b]pyridine derivatives as potent alkaline phosphatase enhancers for osteoporosis treatment” (Bioorg Med Chem Lett, 2019)
Values after ≈ are worked out from the molar mass of the structure shown. Active and inactive are the calls of the source. The calls are words filed in the database; no cut-off is given here.

Experiments:
[1] = target: T1, Alkaline phosphatase, tissue-nonspecific isozyme (Mus musculus) (UniProt P09242); assay: Induction of alkaline phosphatase activity in mouse ST-2 cells after 4 days by spectrophotometric method; assay type: cell-based
T1 sequence (whole entry): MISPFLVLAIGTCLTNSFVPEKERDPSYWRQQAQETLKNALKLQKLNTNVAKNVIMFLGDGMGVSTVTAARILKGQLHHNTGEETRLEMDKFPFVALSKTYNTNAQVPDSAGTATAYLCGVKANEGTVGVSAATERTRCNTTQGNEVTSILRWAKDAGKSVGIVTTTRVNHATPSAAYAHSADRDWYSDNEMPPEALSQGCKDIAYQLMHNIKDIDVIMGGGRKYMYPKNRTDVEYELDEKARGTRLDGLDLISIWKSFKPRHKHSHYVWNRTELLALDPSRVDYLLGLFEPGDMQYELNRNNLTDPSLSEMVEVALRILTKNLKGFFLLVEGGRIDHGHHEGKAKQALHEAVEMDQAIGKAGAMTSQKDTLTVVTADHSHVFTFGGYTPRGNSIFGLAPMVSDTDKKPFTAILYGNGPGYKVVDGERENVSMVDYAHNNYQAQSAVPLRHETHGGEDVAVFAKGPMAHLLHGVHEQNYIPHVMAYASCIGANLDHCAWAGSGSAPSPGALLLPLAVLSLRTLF

[2] = target: CYP2C19 (Homo sapiens, UniProt P33261); assay: Inhibition of CYP2C19 (unknown origin) at 10 uM relative to control; assay type: ADME
[3] = Metabolic stability in human liver microsomes assessed as parent compound remaining after 30 mins; assay type: ADME, Microsome; conditions: read-out: Stability
[4] = target: T2, CYP3A4 (Homo sapiens, UniProt P08684); assay: in vitro; conditions: human liver microsomes
Description: Time dependent inhibition of CYP3A4 in human liver microsomes assessed as enzyme residual activity at 100 uM relative to control

[5] = Solubility of the compound in pH 6.8 JP2 solution; assay type: physicochemical
[6] = target: CYP2C9 (Homo sapiens, UniProt P11712); assay: Inhibition of CYP2C9 (unknown origin) at 10 uM relative to control; assay type: ADME
[7] = Cmax in F344 rat at 60 mg/kg, po; assay type: ADME, organism-based; parameters: dose 60 mg/kg, route oral; conditions: in vivo
[8] = target: T3, CYP1A2 (Homo sapiens, UniProt P05177); assay: Inhibition of CYP1A2 (unknown origin) at 10 uM relative to control; assay type: ADME
T3 sequence (P05177 whole entry): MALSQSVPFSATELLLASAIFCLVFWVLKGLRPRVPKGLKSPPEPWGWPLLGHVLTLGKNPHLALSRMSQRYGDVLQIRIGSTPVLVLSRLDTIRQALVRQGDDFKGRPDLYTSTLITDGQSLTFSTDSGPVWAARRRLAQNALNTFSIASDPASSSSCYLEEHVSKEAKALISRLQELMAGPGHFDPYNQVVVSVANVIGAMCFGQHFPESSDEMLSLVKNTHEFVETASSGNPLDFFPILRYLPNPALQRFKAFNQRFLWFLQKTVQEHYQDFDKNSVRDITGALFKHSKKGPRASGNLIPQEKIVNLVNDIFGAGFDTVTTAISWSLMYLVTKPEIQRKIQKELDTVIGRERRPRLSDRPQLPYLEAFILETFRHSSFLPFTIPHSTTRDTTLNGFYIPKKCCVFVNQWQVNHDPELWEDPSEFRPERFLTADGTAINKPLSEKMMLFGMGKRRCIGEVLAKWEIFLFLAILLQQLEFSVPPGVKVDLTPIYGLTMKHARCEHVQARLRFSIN

[9] = AUC (0 to 8 hrs) in F344 rat at 60 mg/kg, po; assay type: ADME, organism-based; parameters: time < 8 hr, dose 60 mg/kg, route oral; conditions: in vivo
[10] = target: CYP2D6 (Homo sapiens, UniProt P10635); assay: Inhibition of CYP2D6 (unknown origin) at 10 uM relative to control; assay type: ADME
[11] = target: T2, CYP3A4; assay: in vitro
[12] = Metabolic stability in rat liver microsomes assessed as parent compound remaining after 30 mins; assay type: ADME, Microsome; conditions: read-out: Stability
[13] = AUC (0 to 8 hrs) in F344 rat at 30 mg/kg, po; assay type: ADME, organism-based; parameters: time < 8 hr, dose 30 mg/kg, route oral; conditions: in vivo
[14] = system: Rattus norvegicus; assay: Bone anabolic activity in ovariectomized F344 rat assessed as increase in areal bone mineral density in total femur at 30 mg/kg/day, po administered for 5 weeks measured post-last dose by dual energy X-ray absorptiometry; assay type: functional, organism-based
[15] = Cmax in F344 rat at 30 mg/kg, po; assay type: ADME, organism-based; parameters: dose 30 mg/kg, route oral; conditions: in vivo
[16] = system: Rattus norvegicus; assay: Bone anabolic activity in ovariectomized F344 rat assessed as increase in areal bone mineral density in distal femur at 30 mg/kg/day, po administered for 5 weeks measured post-last dose by dual energy X-ray absorptiometry; assay type: functional, organism-based
[17] = system: Rattus norvegicus; assay: Bone anabolic activity in ovariectomized F344 rat assessed as increase in areal bone mineral density in proximal femur at 30 mg/kg/day, po administered for 5 weeks measured post-last dose by dual energy X-ray absorptiometry; assay type: functional, organism-based

Chain of CYP2D6 (P10635 whole entry): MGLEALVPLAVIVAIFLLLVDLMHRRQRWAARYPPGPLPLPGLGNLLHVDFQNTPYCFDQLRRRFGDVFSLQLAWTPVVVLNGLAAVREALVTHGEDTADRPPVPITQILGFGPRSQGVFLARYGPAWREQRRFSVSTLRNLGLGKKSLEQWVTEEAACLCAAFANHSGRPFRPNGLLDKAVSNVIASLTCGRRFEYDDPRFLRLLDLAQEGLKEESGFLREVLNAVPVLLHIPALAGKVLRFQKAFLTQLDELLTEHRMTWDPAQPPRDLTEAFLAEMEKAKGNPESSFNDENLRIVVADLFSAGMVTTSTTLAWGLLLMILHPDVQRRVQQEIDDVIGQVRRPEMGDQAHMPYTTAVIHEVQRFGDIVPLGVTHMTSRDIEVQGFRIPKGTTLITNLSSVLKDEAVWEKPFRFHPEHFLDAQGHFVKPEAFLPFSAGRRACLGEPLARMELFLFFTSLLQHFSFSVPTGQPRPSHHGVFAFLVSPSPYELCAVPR
T2 sequence (P08684 whole entry): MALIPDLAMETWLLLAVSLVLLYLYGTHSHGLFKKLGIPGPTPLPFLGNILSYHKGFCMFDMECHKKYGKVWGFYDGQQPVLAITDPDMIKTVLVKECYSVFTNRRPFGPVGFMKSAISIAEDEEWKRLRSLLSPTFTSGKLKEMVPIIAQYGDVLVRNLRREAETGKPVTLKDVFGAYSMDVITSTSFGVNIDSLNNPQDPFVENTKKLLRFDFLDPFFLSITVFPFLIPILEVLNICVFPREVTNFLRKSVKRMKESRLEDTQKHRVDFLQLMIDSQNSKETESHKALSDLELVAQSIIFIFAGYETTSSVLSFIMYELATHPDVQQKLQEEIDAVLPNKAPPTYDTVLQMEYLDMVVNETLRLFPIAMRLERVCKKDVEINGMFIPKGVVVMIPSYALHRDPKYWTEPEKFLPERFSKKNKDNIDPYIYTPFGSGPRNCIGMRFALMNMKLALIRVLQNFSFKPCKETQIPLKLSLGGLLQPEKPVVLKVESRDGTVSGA
Chain of CYP2C9 (P11712 whole entry): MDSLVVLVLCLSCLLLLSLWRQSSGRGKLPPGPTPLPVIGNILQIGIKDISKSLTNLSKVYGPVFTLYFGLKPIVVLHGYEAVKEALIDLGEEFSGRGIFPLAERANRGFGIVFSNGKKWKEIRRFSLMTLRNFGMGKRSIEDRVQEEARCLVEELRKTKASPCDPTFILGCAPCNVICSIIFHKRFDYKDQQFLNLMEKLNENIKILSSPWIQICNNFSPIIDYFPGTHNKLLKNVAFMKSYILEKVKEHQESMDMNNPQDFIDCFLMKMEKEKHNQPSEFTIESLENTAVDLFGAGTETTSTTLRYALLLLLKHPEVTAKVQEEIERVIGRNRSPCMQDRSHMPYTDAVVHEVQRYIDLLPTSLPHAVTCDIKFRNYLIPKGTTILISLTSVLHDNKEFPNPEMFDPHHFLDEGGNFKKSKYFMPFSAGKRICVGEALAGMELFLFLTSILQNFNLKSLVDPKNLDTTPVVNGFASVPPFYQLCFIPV
Chain of CYP2C19 (P33261 whole entry): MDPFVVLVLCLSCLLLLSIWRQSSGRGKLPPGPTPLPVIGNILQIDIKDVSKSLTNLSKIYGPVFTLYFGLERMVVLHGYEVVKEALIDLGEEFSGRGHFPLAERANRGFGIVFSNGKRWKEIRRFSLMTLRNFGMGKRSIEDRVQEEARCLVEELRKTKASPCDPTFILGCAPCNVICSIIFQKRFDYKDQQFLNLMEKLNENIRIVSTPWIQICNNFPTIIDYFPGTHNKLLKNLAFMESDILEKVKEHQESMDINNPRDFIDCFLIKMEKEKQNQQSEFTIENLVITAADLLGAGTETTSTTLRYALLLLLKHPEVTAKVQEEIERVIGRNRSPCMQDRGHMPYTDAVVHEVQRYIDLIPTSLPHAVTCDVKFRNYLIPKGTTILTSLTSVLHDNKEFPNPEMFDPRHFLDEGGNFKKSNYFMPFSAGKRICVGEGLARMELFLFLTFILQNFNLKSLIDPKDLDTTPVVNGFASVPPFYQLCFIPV

COC(=O)c1ccc(Oc2ccnc3sc(C(N)=O)c(N)c23)cc1
EC200 [1]: 0.09 µg/mL

Cc1cc(Oc2ccc(CCCC(=O)N(C)C)cc2F)c2c(N)c(C(N)=O)sc2n1
inhibition at 10 µM [2]: 10%
remaining at 0.5 h [3]: 60%
activity at 100 µM [4]: 47%
solubility [5]: 0.3 µg/mL (≈ 0.697 µM)
inhibition at 10 µM [6]: 17%
Cmax [7]: 96 ng/mL
EC200 [1]: 0.0005 µg/mL
inhibition at 10 µM [8]: 10%
AUC(0-t) at 8 h [9]: 591 ng·h/mL
inhibition at 10 µM [10]: 10%
inhibition at 10 µM [11]: 20%
remaining at 0.5 h [12]: 12%

NC(=O)c1sc2nccc(Oc3ccccc3F)c2c1N
EC200 [1]: 0.022 µg/mL

Cc1cc(Oc2ccc(CCCC(=O)N(C)C)cc2)c2c(N)c(C(N)=O)sc2n1
EC200 [1]: 0.0011 µg/mL

CC(C)Oc1ccnc2sc(C(N)=O)c(N)c12
EC200 [1]: 0.72 µg/mL

C[C@H]1CCCC[C@@H]1Oc1ccnc2sc(C(N)=O)c(N)c12 (relative stereo)
remaining at 0.5 h [3]: 20%
solubility [5]: 42 µg/mL (≈ 138 µM)
EC200 [1]: 0.045 µg/mL
remaining at 0.5 h [12]: 7%

CN(C)C(=O)c1ccc(Oc2ccnc3sc(C(N)=O)c(N)c23)cc1
EC200 [1]: > 0.3 µg/mL

C[C@@H]1CCC[C@H](Oc2ccnc3sc(C(N)=O)c(N)c23)C1 (relative stereo)
EC200 [1]: > 1 µg/mL

CC(C)c1ccc(Oc2ccnc3sc(C(N)=O)c(N)c23)cc1
EC200 [1]: > 0.3 µg/mL

N#Cc1ccc(Oc2ccnc3sc(C(N)=O)c(N)c23)cc1
EC200 [1]: 0.227 µg/mL

CCc1ccccc1Oc1ccnc2sc(C(N)=O)c(N)c12
EC200 [1]: 0.201 µg/mL

C[C@H]1CC[C@@H](Oc2ccnc3sc(C(N)=O)c(N)c23)CC1
EC200 [1]: > 1 µg/mL

CN(C)C(=O)CCc1ccc(Oc2ccnc3sc(C(N)=O)c(N)c23)cc1
EC200 [1]: 0.01 µg/mL

C[C@H]1CC[C@H](Oc2ccnc3sc(C(N)=O)c(N)c23)CC1
EC200 [1]: 0.037 µg/mL

C[C@H]1COCC[C@@H]1Oc1ccnc2sc(C(N)=O)c(N)c12
EC200 [1]: 0.27 µg/mL

NC(=O)c1sc2nccc(OC3CCOCC3)c2c1N
inhibition at 10 µM [2]: 1%
remaining at 0.5 h [3]: 92%
activity at 100 µM [4]: 89%
solubility [5]: 180 µg/mL (≈ 614 µM)
inhibition at 10 µM [6]: 1%
AUC(0-t) at 8 h [13]: 29800 ng·h/mL
Activity [14]: Active
EC200 [1]: 0.25 µg/mL
inhibition at 10 µM [8]: 11%
Cmax [15]: 10400 ng/mL
inhibition at 10 µM [10]: 0%
inhibition at 10 µM [11]: 2%
remaining at 0.5 h [12]: 85%
Activity [16]: Active
Activity [17]: Active

CN(C)C(=O)CCCc1ccc(Oc2ccnc3sc(C(N)=O)c(N)c23)cc1
EC200 [1]: 0.004 µg/mL

COc1ccc(Oc2ccnc3sc(C(N)=O)c(N)c23)cc1
EC200 [1]: 0.02 µg/mL

COc1ccccc1Oc1ccnc2sc(C(N)=O)c(N)c12
EC200 [1]: 0.114 µg/mL

CN(C)C(=O)COc1ccc(Oc2ccnc3sc(C(N)=O)c(N)c23)cc1
EC200 [1]: 0.023 µg/mL

COc1ccnc2sc(C(N)=O)c(N)c12
EC200 [1]: > 1 µg/mL

NC(=O)c1sc2nccc(N3CCCN(c4ccccc4)CC3)c2c1N
inhibition at 10 µM [2]: 96%
activity at 100 µM [4]: 28%
inhibition at 10 µM [6]: 71%
inhibition at 10 µM [8]: 14%
inhibition at 10 µM [10]: 34%
inhibition at 10 µM [11]: 49%

NC(=O)c1sc2nccc(Oc3ccc(CCO)cc3)c2c1N
inhibition at 10 µM [2]: 8%
remaining at 0.5 h [3]: 93%
activity at 100 µM [4]: 88%
solubility [5]: 39 µg/mL (≈ 118 µM)
inhibition at 10 µM [6]: 7%
Cmax [7]: 1540 ng/mL
EC200 [1]: 0.025 µg/mL
inhibition at 10 µM [8]: 1%
AUC(0-t) at 8 h [9]: 3580 ng·h/mL
inhibition at 10 µM [10]: 3%
inhibition at 10 µM [11]: 0%
remaining at 0.5 h [12]: 75%

NC(=O)c1sc2nccc(OC3CCCCC3)c2c1N
remaining at 0.5 h [3]: 1%
solubility [5]: 28 µg/mL (≈ 96.1 µM)
EC200 [1]: 0.14 µg/mL
remaining at 0.5 h [12]: 2%

CC[C@H]1CC[C@H](Oc2ccnc3sc(C(N)=O)c(N)c23)CC1
EC200 [1]: > 0.3 µg/mL

COc1ccc(Oc2ccnc3sc(C(N)=O)c(N)c23)c(Cl)c1
EC200 [1]: 0.008 µg/mL

CN1CCC(Oc2ccnc3sc(C(N)=O)c(N)c23)CC1
EC200 [1]: > 1 µg/mL

NC(=O)c1sc2nccc(Oc3ccc(Cl)cc3)c2c1N
EC200 [1]: 0.021 µg/mL

CCOc1ccnc2sc(C(N)=O)c(N)c12
EC200 [1]: 0.27 µg/mL

Cc1cc(Oc2ccc(CCCC(=O)N(C)C)cc2Cl)c2c(N)c(C(N)=O)sc2n1
inhibition at 10 µM [2]: 11%
remaining at 0.5 h [3]: 25%
activity at 100 µM [4]: 25%
solubility [5]: 0.2 µg/mL (≈ 0.447 µM)
inhibition at 10 µM [6]: 30%
EC200 [1]: 0.0004 µg/mL
inhibition at 10 µM [8]: 6%
inhibition at 10 µM [10]: 15%
inhibition at 10 µM [11]: 40%
remaining at 0.5 h [12]: 11%

CN(C)c1ccnc2sc(C(N)=O)c(N)c12
inhibition at 10 µM [2]: 0%
inhibition at 10 µM [6]: 0%
EC200 [1]: 0.17 µg/mL
inhibition at 10 µM [8]: 61%
inhibition at 10 µM [10]: 1%
inhibition at 10 µM [11]: 0%

NC(=O)c1sc2nccc(Oc3ccccc3Cl)c2c1N
EC200 [1]: 0.008 µg/mL

NC(=O)c1sc2nccc(Oc3ccccc3)c2c1N
inhibition at 10 µM [2]: 15%
remaining at 0.5 h [3]: 11%
activity at 100 µM [4]: 93%
solubility [5]: 6.6 µg/mL (≈ 23.1 µM)
inhibition at 10 µM [6]: 13%
EC200 [1]: 0.046 µg/mL
inhibition at 10 µM [8]: 41%
inhibition at 10 µM [10]: 5%
inhibition at 10 µM [11]: 9%
remaining at 0.5 h [12]: 36%

NC(=O)c1sc2nccc(Oc3ccc(Cl)cc3Cl)c2c1N
EC200 [1]: 0.014 µg/mL

NC(=O)c1sc2nccc(Oc3cccc(Cl)c3)c2c1N
EC200 [1]: 0.149 µg/mL

CN(C)CCc1ccc(Oc2ccnc3sc(C(N)=O)c(N)c23)cc1
EC200 [1]: 0.058 µg/mL

NC(=O)c1sc2nccc(SC3CCCCC3)c2c1N
EC200 [1]: > 1 µg/mL

CCc1ccc(Oc2ccnc3sc(C(N)=O)c(N)c23)cc1
EC200 [1]: 0.036 µg/mL
